Results: PubChem BioAssay (NCI)
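Five concentrations, 48 hours, 96-well plates. GI50: concentration for 50% inhibition of growth. TGI denotes the concentration required for complete inhibition of growth.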

Experiments:
Test in all cases: NCI anticancer screen, dose series, 48 h
[1] = tested on: EKVX NSCLC
[2] = tested on: LOX IMVI melanoma
[3] = tested on: NCI-H23 lung
[4] = tested on: OVCAR-3 ovarian
[5] = tested on: SF-268 CNS
[6] = tested on: SNB-19 CNS
[7] = tested on: SR leukemia
[8] = tested on: TK-10 renal
[9] = tested on: UO-31 renal
[10] = tested on: CAKI-1 renal

Compound	TGI [1] [µM]	TGI [2] [µM]	TGI [3] [µM]	TGI [4] [µM]	TGI [5] [µM]	TGI [6] [µM]	TGI [7] [µM]	TGI [8] [µM]	TGI [9] [µM]	TGI [10] [µM]	GI50 [10] [µM]	GI50 [1] [µM]	GI50 [2] [µM]	GI50 [3] [µM]	GI50 [4] [µM]	GI50 [5] [µM]	GI50 [6] [µM]	GI50 [8] [µM]	GI50 [9] [µM]	GI50 [7] [µM]
O=Cc1cn(S(=O)(=O)c2ccccc2)c2ccccc12	> 100	43.8	85	> 100	> 100	> 100	67.1	> 100	68	–	–	–	–	–	–	–	–	–	–	–
Cn1c2c(c3ccccc31)CCN(CCCN1CCN(c3ccccc3)CC1)C2=O	77.6	60	46.8	–	> 100	–	–	35.4	30.3	30.8	–	–	–	–	–	–	–	–	–	–
COc1ccc(Nc2ncccc2C(=O)NCc2cn(Cc3cccc(Oc4ccccc4)c3)nn2)c(OC)c1	> 100	> 100	> 100	4.78	> 100	> 100	–	> 100	> 100	> 100	1.26	9.61	2.54	2.18	1.11	3.34	3.64	13.8	5.54	–
COc1cc([C@@H]2c3cc4c(cc3[C@@H](NC(=O)c3ccc(OC(C)=O)cc3)C3COC(=O)[C@@H]32)OCO4)cc(OC)c1O (stereo not given in full)	21.2	10.1	3.31	22.3	> 100	> 100	–	30.8	30.6	15.8	–	–	–	–	–	–	–	–	–	–
COc1cc(OC)c(/C=C/C(=O)c2c(O)cc(OC)c(C3CCN(C)CC3)c2OC)c(OC)c1	2.48	–	2.78	3.32	3.29	3.81	–	–	2.81	2.93	1.51	1.12	–	1.41	1.81	1.63	1.78	–	1.36	–
C1C[S][Ge]2([S]CCS1)[S]CCSCC[S]2	–	–	> 100	–	> 100	–	> 100	–	> 100	> 100	> 100	–	–	> 100	–	> 100	–	–	> 100	> 100
C=CCCCC(O)c1ccc(C(O)c2cnc3ccccc3c2)o1 (stereo not given)	> 100	33.8	49.6	> 100	> 100	> 100	–	67	> 100	98.4	31.4	19.2	17.1	14.3	88.2	32.5	82.5	33.2	50.9	–
COC(=O)Cc1nn2c(nc1=O)sc1ccc3ccccc3c12	> 100	> 100	> 100	> 100	–	> 100	> 100	–	> 100	> 100	–	–	–	–	–	–	–	–	–	–
CC(O)c1ccc(C(O)/C(=N\NC(=O)c2ccncc2)c2nc3ccc([N+](=O)[O-])cc3[nH]c2=O)cc1 (stereo not given)	–	> 100	> 100	> 100	> 100	> 100	> 100	–	> 100	> 100	–	–	–	–	–	–	–	–	–	–
Cc1ccnc(NC(c2ccccc2)c2ccc3cccnc3c2O)c1 (stereo not given)	15.8	34.2	> 100	14	21.5	> 100	> 100	–	14.6	7.17	1.68	2.64	3.29	5.12	2.79	2.93	6.28	–	1.3	2.7
CC(C)=Cc1cc(C(=O)NCCNC(=O)c2cc(C=C(C)C)nc(NC#N)n2)nc(NC#N)n1	> 100	> 100	> 100	> 100	> 100	> 100	–	> 100	> 100	> 100	–	–	–	–	–	–	–	–	–	–
CN1c2ccccc2S(=O)(=O)n2c(COc3ccccc3)nnc21	> 100	> 100	> 100	> 100	> 100	> 100	–	> 100	> 100	> 100	–	–	–	–	–	–	–	–	–	–
C=C(C)[C@@H]1CC[C@]2(C(=O)N3CCN(C)CC3)CC[C@]3(C)[C@H](CC[C@@H]4[C@@]5(C)CC[C@H](O)C(C)(C)[C@@H]5CC[C@]43C)[C@@H]12	4.12	3.74	3.82	3.49	4.42	3.92	–	3.38	3.24	3.05	1.59	1.92	1.87	1.92	1.9	2.02	1.83	1.79	1.67	–
Cc1cc(N(CCC#N)CCC#N)ccc1CC1N=C(c2ccccc2)OC1=O (stereo not given)	> 100	> 100	> 100	> 100	> 100	> 100	–	> 100	> 100	> 100	–	–	–	–	–	–	–	–	–	–
Cc1nc2cc(Nc3nc(Nc4ccc(F)cc4)nc(N4CCCC4)n3)ccc2n1Cc1ccccc1	–	3.36	5.31	3.28	3.9	87.3	–	3.37	2.92	–	–	–	1.84	2.2	1.77	1.94	3.4	1.89	1.51	–
O=c1[nH]c(-c2ccc([N+](=O)[O-])cc2)nc2ccc(Cl)cc12	> 100	–	> 100	–	> 100	> 100	–	> 100	> 100	–	–	–	–	–	–	–	–	–	–	–
CCOC(=O)Cn1c(=O)[nH]c(=O)c2[nH]cnc21	> 100	> 100	> 100	> 100	> 100	> 100	> 100	> 100	> 100	–	–	–	–	–	–	–	–	–	–	–
NNC(=S)NN/C=C(\C=Nc1ccccc1)[N+](=O)[O-]	> 100	> 100	> 100	> 100	> 100	> 100	–	> 100	–	> 100	–	–	–	–	–	–	–	–	–	–
CCC1OC(=O)CC(O)C(C)C(OC2OC(C)CC(N(C)C)C2O)C(CC=O)CC(C)C(=O)/C=C/C2(C)OC2C1C (stereo not given)	44.8	48	52.3	59.1	76.3	30.6	36.6	–	80.4	74.1	–	–	–	–	–	–	–	–	–	–
